Assays:
[1] = target: T1, Sphingosine 1-phosphate receptor 1 (Homo sapiens, UniProt P21453); assay: Detecting Inhibition of cAMP Production
Protocol: Agonist-promoted G-protein responses were determined by measuring changes in intracellular cAMP using the HTRF cAMP HiRange kit (CisBio, Cat #: 62AM6PEJ) based on time-resolved fluorescence resonance energy transfer (TR-FRET) technology. […] Following a 30-minute incubation at 37 C. and 5% CO2 in a humidified CO2 and temperature-controlled incubator, the components of the cAMP HiRange kit were added as per the manufacturer's instructions. After an hour incubation at room temperature, plates were analyzed by a BMG PheraStar microplate reader.

[2] = target: T1, Sphingosine 1-phosphate receptor 1; assay: Beta-Arrestin2 Recruitment Assay
Protocol: Agonist-promoted β-arrestin2 recruitment to the sphingosine-1-phosphate 1 receptor was determined using the β-arrestin PathHunter ) Detection kit (DiscoverX Corporation, Cat #: 93-0001). […] In cells that stably express these fusion proteins, stimulation with a cognate agonist results in the interaction of 0-arrestin2 and the Prolink -tagged GPCR. This allows the complementation of the two β-galactosidase fragments and results in the formation of a functional enzyme with β-galactosidase activity. […] Following a 60 minute incubation at 37 C. and 5% CO2 in a humidified CO2 and temperature-controlled incubator, the components of the β-arrestin PathHunter Detection kit were added as per the manufacturer's instructions. After an hour incubation at room temperature, plates were analyzed by a BMG PheraStar microplate reader.

T1 sequence (P21453 whole entry): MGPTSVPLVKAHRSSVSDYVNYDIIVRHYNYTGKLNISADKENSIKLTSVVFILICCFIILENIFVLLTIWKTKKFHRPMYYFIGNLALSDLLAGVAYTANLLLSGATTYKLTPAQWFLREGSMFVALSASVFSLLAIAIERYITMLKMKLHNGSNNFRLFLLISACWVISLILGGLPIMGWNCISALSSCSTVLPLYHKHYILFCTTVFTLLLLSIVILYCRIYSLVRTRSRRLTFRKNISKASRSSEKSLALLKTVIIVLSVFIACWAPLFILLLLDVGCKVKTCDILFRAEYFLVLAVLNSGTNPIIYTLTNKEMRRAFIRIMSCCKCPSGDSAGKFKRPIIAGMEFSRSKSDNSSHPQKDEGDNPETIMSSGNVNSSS

Row | EC50 [1] [µM] | EC50 [2] [µM] | Structure (SMILES)
1 | < 0.316 | < 10 | CC(C)N1NNc2cc(-c3nc(-c4cccnc4Cl)no3)ccc21 [US11912693, Compound 499]
2 | < 0.316 | < 10 | Cc1ccccc1-c1nc(-c2ccc3c(c2)NNN3CC(C)(C)O)no1 [US11912693, Compound 593]
3 | > 0.316 | > 10 | CC(C)N1NNc2cc(-c3nc(-c4cn[nH]c4)no3)ccc21 [US11912693, Compound 646]

Continued, compound first:

Row | Structure (SMILES) | EC50 [1] [µM] | EC50 [2] [µM]
4 | Cc1cc(-c2noc(-c3ccc4c(c3)nnn4C3CCCC3)n2)ccn1 [US11912693, Compound 77] | > 0.316 | > 10
5 | CC(C)n1nnc2cc(-c3nc(-c4ccccc4Cl)co3)ccc21 [US11912693, Compound 163] | < 0.316 | < 10
6 | CC(C)N1NNc2cc(-c3nc(-c4sccc4Cl)co3)ccc21 [US11912693, Compound 463] | < 0.316 | < 10
7 | Cc1cc(-c2noc(-c3ccc4c(c3)NNN4C(C)C)n2)c(C)o1 [US11912693, Compound 490] | < 0.316 | < 10
8 | Cc1occc1-c1noc(-c2ccc3c(c2)NNN3C(C)C)n1 [US11912693, Compound 491] | < 0.316 | < 10
9 | Cc1cc(-c2noc(-c3ccc4c(c3)NNN4CC(C)(C)O)n2)c(C)o1 [US11912693, Compound 493] | > 0.316 | > 10

From BindingDB's records for patent US11912693 (Trevena, 2024)
